Laboratory results taken from US20200369630A1, “HERBICIDALLY ACTIVE 3-PHENYL-5-TRIFLUOROMETHYLISOXAZOLINE-5-CARBOXAMIDES OF CYCLOPENTYLCARBOXYLIC ACIDS AND ESTERS” (Bayer Aktiengesellschaft, priority 2017, published 2020).

How the values were obtained:
Format in all cases: in vivo
[1] = system: ECHCG: Echinochloa crus-galli; assay: Pre-emergence herbicidal action; conditions: Table C1, pre-emergence, 80 g/ha, scored visually after about 3 weeks
Source text: (§1) Seeds of monocotyledonous and dicotyledonous weed plants and crop plants are placed in plastic or wood fiber pots and covered with soil. The compounds of the invention, formulated in the form of wettable powders (WP) or as emulsion concentrates (EC), are then applied onto the surface of the covering soil as aqueous suspension or emulsion with addition of 0.5% additive at a water application rate of […] (converted). After the treatment, the pots are placed in a greenhouse and kept under good growth conditions for the trial plants. After about 3 weeks, the effect of the preparations is scored visually in comparison with untreated controls as percentages. For example, 100% activity=the plants have died, 0% activity=like control plants. [table]

SETVI: Setaria viridis = assay: Pre-emergence herbicidal action
Source text: as §1

AVEFA: Avena fatua [2] = assay: Pre-emergence herbicidal action
Source text: as §1

[3] = system: POLCO: Polygonum convolvulus; assay: Pre-emergence herbicidal action; conditions: Table C1, pre-emergence, 80 g/ha, scored visually after about 3 weeks
Source text: as §1

VERPE: Veronica persica [4] = assay: Pre-emergence herbicidal action
Source text: as §1

[5] = system: AMARE: Amaranthus retroflexus; assay: Pre-emergence herbicidal action
Source text: as §1

PHBPU: Ipomoea purpurea = assay: Pre-emergence herbicidal action; conditions: Table C1, pre-emergence, 80 g/ha, scored visually after about 3 weeks
Source text: as §1

STEME: Stellaria media [6] = assay: Pre-emergence herbicidal action
Source text: as §1

[7] = system: ABUTH: Abutilon theophrasti; assay: Pre-emergence herbicidal action; conditions: Table C1, pre-emergence, 80 g/ha, scored visually after about 3 weeks
Source text: as §1

VIOTR: Viola tricolor = assay: Pre-emergence herbicidal action
Source text: as §1

[8] = system: ALOMY: Alopecurus myosuroides; assay: Pre-emergence herbicidal action
Source text: as §1

LOLRI: Lolium rigidum [9] = assay: Pre-emergence herbicidal action; conditions: Table C1, pre-emergence, 80 g/ha, scored visually after about 3 weeks
Source text: as §1

[10] = system: MATIN: Matricaria inodora; assay: Pre-emergence herbicidal action; conditions: Table C1, pre-emergence, 80 g/ha, scored visually after about 3 weeks
Source text: as §1

HORMU: Hordeum murinum [11] = assay: Pre-emergence herbicidal action; conditions: Table C1, pre-emergence, 80 g/ha, scored visually after about 3 weeks
Source text: as §1

[12] = system: ECHCG: Echinochloa crus-galli; assay: Post-emergence herbicidal action; conditions: Table C2, post-emergence, dosage 320 (0.32 kg of active substance per hectare), rated visually after about 3 weeks
Protocol: (§2) [table] Seeds of monocotyledonous and dicotyledonous weeds and crop plants are placed in sandy loam in plastic or wood-fiber pots, covered with soil and cultivated in a greenhouse under controlled growth conditions. 2 to 3 weeks after sowing, the test plants are treated at the one-leaf stage. The compounds of the invention, formulated in the form of wettable powders (WP) or as emulsion concentrates (EC), are then sprayed onto the green parts of the plants as aqueous suspension or emulsion with addition of 0.5% additive at a water application rate of […] (converted). After the test plants had been kept in the greenhouse under optimum growth conditions for about 3 weeks, the activity of the preparations is rated visually in comparison to untreated controls. For example, 100% activity=the plants have died, 0% activity=like control plants.

AVEFA: Avena fatua [13] = assay: Post-emergence herbicidal action; conditions: Table C2, post-emergence, dosage 320 (0.32 kg of active substance per hectare), rated visually after about 3 weeks
Protocol: as §2

[14] = system: POLCO: Polygonum convolvulus; assay: Post-emergence herbicidal action; conditions: Table C2, post-emergence, dosage 320 (0.32 kg of active substance per hectare), rated visually after about 3 weeks
Protocol: as §2

VERPE: Veronica persica [15] = assay: Post-emergence herbicidal action; conditions: Table C2, post-emergence, dosage 320 (0.32 kg of active substance per hectare), rated visually after about 3 weeks
Protocol: as §2

[16] = system: AMARE: Amaranthus retroflexus; assay: Post-emergence herbicidal action; conditions: Table C2, post-emergence, dosage 320 (0.32 kg of active substance per hectare), rated visually after about 3 weeks
Protocol: as §2

STEME: Stellaria media [17] = assay: Post-emergence herbicidal action
Protocol: as §2

[18] = system: ABUTH: Abutilon theophrasti; assay: Post-emergence herbicidal action; conditions: Second Table C3, superiority with respect to WO 2012/130798, post-emergence, 80 g/ha
Protocol: as §2

[19] = system: ALOMY: Alopecurus myosuroides; assay: Post-emergence herbicidal action; conditions: Table C2, post-emergence, dosage 320 (0.32 kg of active substance per hectare), rated visually after about 3 weeks
Protocol: as §2

LOLRI: Lolium rigidum [20] = assay: Post-emergence herbicidal action; conditions: Table C2, post-emergence, dosage 320 (0.32 kg of active substance per hectare), rated visually after about 3 weeks
Protocol: as §2

HORMU: Hordeum murinum [21] = assay: Post-emergence herbicidal action; conditions: Table C2, post-emergence, dosage 320 (0.32 kg of active substance per hectare), rated visually after about 3 weeks
Protocol: as §2

[22] = Second Table C4, superiority with respect to WO 2012/130798, pre-emergence, 20 g/ha
[23] = Table C1, pre-emergence, 80 g/ha, scored visually after about 3 weeks

CCOC(=O)C1CCC(NC(=O)C2(C(F)(F)F)CC(c3cc(F)cc(F)c3)=NO2)C1 (mixture of isomers) [Example I-29]
Herbicidal action against [%] ECHCG [1]: 90% | Herbicidal action against [%] SETVI (SETVI: Setaria viridis; [22]): 90% | Herbicidal action against [%] SETVI (SETVI: Setaria viridis; [23]): 100% | Herbicidal action against [%] AVEFA (AVEFA: Avena fatua [2]; [22]): 70% | Herbicidal action against [%] AVEFA (AVEFA: Avena fatua [2]; [23]): 80% | Herbicidal action against [%] POLCO [3]: 80% | Herbicidal action against [%] VERPE (VERPE: Veronica persica [4]; [22]): 90% | Herbicidal action against [%] VERPE (VERPE: Veronica persica [4]; [23]): 100% | Herbicidal action against [%] AMARE [5, 22]: 100% | Herbicidal action against [%] AMARE [5, 23]: 100% | Herbicidal action against [%] PHBPU (PHBPU: Ipomoea purpurea): 80% | Herbicidal action against [%] STEME (STEME: Stellaria media [6]; [22]): 90% | Herbicidal action against [%] STEME (STEME: Stellaria media [6]; [23]): 90% | Herbicidal action against [%] ABUTH [7]: 70% | Herbicidal action against [%] VIOTR (VIOTR: Viola tricolor; [22]): 90% | Herbicidal action against [%] VIOTR (VIOTR: Viola tricolor; [23]): 90% | Herbicidal action against [%] ALOMY [8, 22]: 90% | Herbicidal action against [%] ALOMY [8, 23]: 100% | Herbicidal action against [%] LOLRI (LOLRI: Lolium rigidum [9]): 100% | Herbicidal action against [%] MATIN [10]: 30% | Herbicidal action against [%] HORMU (HORMU: Hordeum murinum [11]): 90% | Herbicidal action against [%] ECHCG [12]: 80% | Herbicidal action against [%] AVEFA (AVEFA: Avena fatua [13]): 90% | Herbicidal action against [%] POLCO [14]: 90% | Herbicidal action against [%] VERPE (VERPE: Veronica persica [15]): 80% | Herbicidal action against [%] AMARE [16]: 80% | Herbicidal action against [%] STEME (STEME: Stellaria media [17]; Second Table C3, superiority with respect to WO 2012/130798, post-emergence, 80 g/ha): 80% | Herbicidal action against [%] STEME (STEME: Stellaria media [17]; Table C2, post-emergence, dosage 320 (0.32 kg of active substance per hectare), rated visually after about 3 weeks): 80% | Herbicidal action against [%] ABUTH [18]: 80% | Herbicidal action against [%] ALOMY [19]: 90% | Herbicidal action against [%] LOLRI (LOLRI: Lolium rigidum [20]): 90% | Herbicidal action against [%] HORMU (HORMU: Hordeum murinum [21]): 90%
